Reference: patent publication US7157256B2, “Method for producing para-hydroxystyrene and other multifunctional aromatic compounds using two-phase extractive fermentation” (E. I. du Pont de Nemours and Company, priority 2003, dated 2007)
“And” between values parts separate entries of the source, which are not always exact repeats. Equal values may be shown once. “Also recorded” adds a separate entry of the source.

How the values were obtained:
E. coli TY1 (DGL430) = assay: Toxicity testing of organic solvents toward E. coli using agar cultures; assay type: cell-based; conditions: for % CFU 1 Sample 2 / % CFU Sample 1 / % CFU Sample 3: 5 mL solvent on inoculated LB agar plate, 30° C., CFU as percentage of control plates; for toxicity to E. coli in words: agar plate study
Procedure: This study was done using E. coli TY1 (DGL430), as described in Example 1. A stock culture of this strain was prepared in 50% glycerol and stored at −20° C. This stock culture (10 μL) was used to inoculate a 14 mL Falcon™ tube (BD Biosciences, Bedford, Mass.) containing 5 mL of LB medium, consisting of Bacto-tryptone (10 g/L), Bacto-yeast extract (5 g/L), and NaCL (10 g/L) adjusted to pH 7.5 with NaOH, and supplemented with tetracycline (10 μg/mL). This culture was incubated at 34° C. and 250 rpm overnight in an incubator shaker until an OD600 of between 1.0 and 2.0 was obtained. Dilutions of this culture were spread onto LB agar plates. The appropriate dilution was determined by experimentation to obtain between 100 to 200 colonies per plate. The solvents (5 mL) were filtered through a 0.2 μm filter onto the inoculated agar plates. All the solvents were tested in triplicate.
The plates were incubated overnight at 30° C. in a vented incubator located in a chemical fume hood. The colonies formed were counted after 24 and 48 h. The colony forming units (CFUs) obtained with each solvent were compared to those of the control plates and plotted in FIG. 1 as a percentage versus the log P value for the solvent (P values obtained from Hansch et al., Exploring QSAR: Hydrophobic, Electronic and Steric Constants, American Chemical Society, Washington, D.C., 1995). […] The error bars in the figure represent the range of the data. Cell growth on the agar medium was characterized by the presence of both distinct and non-distinct colony formations, which affected the precision of the colony counts. In the presence of some of the solvents tested, growth continued between 24 and 48 h, while with other solvents, no further growth was observed after 24 h.

[1] = P values obtained from Hansch et al. 1995; cited from earlier work
E. coli strain BNT511 = assay: Effect of organic solvents on the growth of E. coli, shake flasks; assay type: cell-based; conditions: for OD 550: 10 mL solvent in 30 mL medium
Excerpt: E. coli strain BNT511 was used in this study. This strain is a tyrosine overproducing strain derived from E. coli strain NST 74 (ATCC No. 31884), which was obtained from the American Type Culture Collection (ATCC) (Manassas, Va.). Strain BNT511 is deposited with the American Type Culture Collection under the terms of the Budapest Treaty on the International Recognition of the Deposit of Microorganisms for the Purposes of Patent Procedure and has been assigned a depository designation of PTA-4314. E. coli strain BNT511 was obtained as follows. A culture of E. coli strain NST 74 was grown overnight at 37° C. in three milliliters of M9 medium, prepared as follows. A solution of M9 salts buffer consisting of KH2PO4 (3 g/L), Na2HPO4 (6 g/L), NaCl (0.5 g/L), and NH4Cl (1 g/L), was prepared and the pH was adjusted to 7.4. This M9 salts buffer was autoclaved and then the following solutions, each sterilized separately by filtration (glucose) or autoclaving, were added to give the concentrations given in parentheses MgSO4 (0.24 g/L), glucose (0.2%), CaCl2 (0.011 g/L), and yeast extract (1 g/L). After growth, the culture was diluted by a factor of 10^3 to 10^6 in M9 salts buffer. Then, 100 μL of each dilution was plated on M9+1% glucose agar containing […] of 3-fluorotyrosine and the plates were incubated at 37° C. After 18 h, growth was observed only on the plate not containing 3-fluorotyrosine. Plates containing 3-fluorotyrosine were incubated an additional 24 h, after which time, several isolates were identified. One NST 74-derived isolate was obtained from each of the 150 and 450 mg/mL 3-fluorotyrosine plates. Individual isolates were propagated on M9+1% glucose agar containing 0, 50, 150, or 250 mg/mL 3-fluorotyrosine. One of these two isolates was designated as BNT511.
E. coli strain BNT511 was grown in a medium containing KH2PO4 (0.15 g/L), Na2HPO4 (0.35 g/L), (NH4)2 SO4 (3 g/L), MgSO4.7H2O (0.3 g/L), yeast extract (0.5 g/L), MOPS (15.6 g/L), and glucose (10 g/L), adjusted to pH 6.8. A seed culture, taken from an active culture that grew in a fermentor and was diluted to 0.3 OD at 550 nm, was used to inoculate 30 mL of culture medium in 250 mL baffled flasks. Ten milliliters of the solvent to be tested, either 1-undecanol (98%, obtained from Aldrich) or 2-undecanone (98%, obtained from Aldrich), was added to the flask and the flasks were incubated at 35° C. and 300 rpm for 22 h in an incubator shaker. A flask without an organic solvent added served as the control. This experiment was run in duplicate. Samples of the aqueous culture media were removed at various times and the pH and the OD550 were measured. As shown by the results given in Table 2, the presence of the organic solvents tested had no significant effect on the growth of E. coli. However, the results obtained with 2-undecanone in these studies were not consistent. […] We believe that this variability was caused by variations in the purity of this solvent.

[2] = Extraction of CA into organic phase, two-phase flask fermentation; assay type: physicochemical
Procedure: The strain used in this study was E. coli WWQ51.1, as described in Example 3. The conditions were similar to those described in Example 3. Eight test cultures were inoculated; six contained 20 mL of 2-undecanone, the other two contained 20 mL of 1-undecanol. A 10% w/v solution of pHS in propylene glycol (0.5 mL), obtained from Sigma-Aldrich, Milwaukee, Wis., was added to two of the cultures containing 2-undecanone, as specified in Table 7.
The cultures were incubated in 250 mL baffled flasks at 35° C. and 300 rpm for 24 h in an incubator shaker. After this time, a sample of the aqueous phase was withdrawn and the pH, OD550, and the concentration of the fermentation products were measured, as described supra. The organic phase was also sampled and the concentration of CA and pHS were determined using HPLC, as described supra.
In this study, the pH decreased to low values and a significant amount of CA was extracted into both organic solvents tested. The amount of pHS produced was low, probably because of its poor stability at low pH. As shown by the data in Table 9, the amount of CA extracted into the organic phase was very dependent on the pH of the medium. This pH dependence results because the fully protonated species is the form extracted into the organic phase. The ionized acid form is very water-soluble and is not extracted into the organic phase. Therefore, the extractive fermentation of acidic compounds such as CA and pHCA is favored at low pH, where the acid exists primarily in the unionized form.

[3] = 2 h, 35° C., 300 rpm, duplicate flasks

Structure (SMILES) | % CFU 1 Sample 2 (E. coli TY1 (DGL430)) [%] | % CFU Sample 1 (E. coli TY1 (DGL430)) [%] | % CFU Sample 3 (E. coli TY1 (DGL430)) [%] | Log P [1] | toxicity to E. coli in words (E. coli TY1 (DGL430)) | other results
CCCCC(=O)c1ccccc1 [1-Phenyl-1-pentanone] | 62 | 33 | 0 | 3.33 |  | 
CCCCCCCCCCCO [1-undecanol] |  |  |  |  |  | OD 550 (E. coli strain BNT511; [3]): 1.428 and 1.456; OD 550 (E. coli strain BNT511; 4.2 h): 1.96 and 2.14; OD 550 (E. coli strain BNT511; 6 h): 6.02 and 6.7; OD 550 (E. coli strain BNT511; 22 h): 19.1 and 15.7
CCCCCCCCC(C)=O [2-Decanone] | 0 | 0 | 0 | 3.39 |  | 
CCCCCCCCCCCC(C)=O [2-Tridecanone] | 115 | 100 | 87 | 4.95 | relatively nontoxic to E. coli | 
CCCCCCCCCC(C)=O [2-undecanone] | 11 | 11 | 11 | 3.91 | significantly inhibit growth | growth inhibition / toxicity to E. coli of some lots (E. coli strain BNT511; 2-undecanone from some suppliers and lots, ascribed to impurities): found to inhibit growth; also recorded: toxic to E. coli due to impurities; OD 550 (E. coli strain BNT511; [3]): 1.004; OD 550 (E. coli strain BNT511; 4.2 h): 1.88; OD 550 (E. coli strain BNT511; 6 h): 6.3 and 6.28; OD 550 (E. coli strain BNT511; 22 h): 15.2 and 12.3
O=C(O)C=Cc1ccccc1 [CA, cinnamic acid] |  |  |  |  |  | CA Org/CA Aq ([2]; Flask 1, 2-undecanone 20 mL/flask, pH 5.38, 24 h): 3.55; CA Org/CA Aq ([2]; Flask 2, 2-undecanone, pH 4.5): 17.00; CA Org/CA Aq ([2]; Flask 3, 2-undecanone, pH 5.5): 1.43; CA Org/CA Aq ([2]; Flask 4, 2-undecanone, pH 5.4): 2.54; CA Org/CA Aq ([2]; Flask 5, 2-undecanone, pH 4.8): 8.08; CA Org/CA Aq ([2]; Flask 6, 2-undecanone, pH 5.7): 1.10; CA Org/CA Aq ([2]; Flask 7, 1-undecanol, pH 5.7): 2.10; CA Org/CA Aq ([2]; Flask 8, 1-undecanol, pH 5.71): 2.15
c1ccc(COCc2ccccc2)cc1 [Dibenzyl ether] | 5 | 1.5 | 0 | 3.1 |  | 
CC(C)CCOCCC(C)C [Diisopentyl ether] | 39 | 13 | 0 | 3.96 |  | 
CCCCCCCCCC(=O)OC [Methyl decanoate] | 109 | 73 | 44 | 4.41 | relatively nontoxic to E. coli | 
CCCOC(=O)c1ccccc1 [Propyl benzoate] | 26 | 9 | 0.9 |  |  | 
